Data from article PMC9297976 (Journal of Applied Toxicology, 2021).

Legend:
medaka ARβ (mArβ) [1] = target: T1, medaka ARβ (mArβ) (Oryzias latipes, UniProt D1MV73); test: Medaka ARβ reporter gene assay, agonist assay; type: cell-based, Japanese medaka (Oryzias latipes)
T1 sequence (D1MV73 1-744): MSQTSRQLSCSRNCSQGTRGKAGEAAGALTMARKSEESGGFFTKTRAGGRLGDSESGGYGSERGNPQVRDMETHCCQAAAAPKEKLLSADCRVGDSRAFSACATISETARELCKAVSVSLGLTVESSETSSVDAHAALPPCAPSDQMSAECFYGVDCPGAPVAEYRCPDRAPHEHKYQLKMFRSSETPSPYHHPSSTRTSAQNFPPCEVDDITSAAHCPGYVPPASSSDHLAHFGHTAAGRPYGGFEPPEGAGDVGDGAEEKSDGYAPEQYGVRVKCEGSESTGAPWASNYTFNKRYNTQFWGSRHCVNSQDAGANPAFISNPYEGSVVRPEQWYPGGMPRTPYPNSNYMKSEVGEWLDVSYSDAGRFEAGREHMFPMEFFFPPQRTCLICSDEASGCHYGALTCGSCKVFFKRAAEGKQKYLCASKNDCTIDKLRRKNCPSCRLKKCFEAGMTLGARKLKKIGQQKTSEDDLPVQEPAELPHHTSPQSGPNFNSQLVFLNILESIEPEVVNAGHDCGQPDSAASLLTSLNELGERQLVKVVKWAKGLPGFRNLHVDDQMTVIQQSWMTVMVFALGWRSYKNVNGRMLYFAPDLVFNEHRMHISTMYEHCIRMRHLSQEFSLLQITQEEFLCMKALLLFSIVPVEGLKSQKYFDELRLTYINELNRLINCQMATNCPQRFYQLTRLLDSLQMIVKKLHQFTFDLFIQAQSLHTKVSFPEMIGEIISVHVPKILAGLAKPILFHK

medaka Esr1 (mEsr1) [2] = target: T2, medaka Esr1 (mEsr1) (Oryzias latipes, UniProt P50241); test: cell-based; design: species or system Japanese medaka (Oryzias latipes)
T2 sequence (P50241 1-620): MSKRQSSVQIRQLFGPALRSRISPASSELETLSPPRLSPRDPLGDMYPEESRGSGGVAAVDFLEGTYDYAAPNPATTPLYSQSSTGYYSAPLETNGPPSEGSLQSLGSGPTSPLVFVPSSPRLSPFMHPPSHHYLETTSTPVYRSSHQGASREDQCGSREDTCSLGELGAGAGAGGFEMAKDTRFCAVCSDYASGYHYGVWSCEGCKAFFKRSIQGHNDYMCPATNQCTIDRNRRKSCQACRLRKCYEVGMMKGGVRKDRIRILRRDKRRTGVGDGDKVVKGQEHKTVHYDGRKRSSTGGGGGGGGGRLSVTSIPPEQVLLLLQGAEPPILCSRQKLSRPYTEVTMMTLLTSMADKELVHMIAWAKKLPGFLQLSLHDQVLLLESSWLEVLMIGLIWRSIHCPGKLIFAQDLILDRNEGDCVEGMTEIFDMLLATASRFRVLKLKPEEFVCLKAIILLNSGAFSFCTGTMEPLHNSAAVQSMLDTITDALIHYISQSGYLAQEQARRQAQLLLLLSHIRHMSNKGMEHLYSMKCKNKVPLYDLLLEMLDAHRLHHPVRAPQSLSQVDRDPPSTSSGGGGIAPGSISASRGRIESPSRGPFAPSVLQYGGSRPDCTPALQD

medaka Esr1 (mEsr1) [3] = target: T2, medaka Esr1 (mEsr1); test: Medaka Esr1 reporter gene assay, antagonist assay; type: cell-based, Japanese medaka (Oryzias latipes); details: E2 spiked at 1.0 nM (B); MAC = 1.0 × 10^−5 M
medaka ARβ (mArβ) [4] = target: T1, medaka ARβ (mArβ); test: Medaka ARβ reporter gene assay, antagonist assay; type: cell-based, Japanese medaka (Oryzias latipes); details: 11‐KT spiked at 10 nM (C); MAC = 1.0 × 10^−4 M

SMILES	EC50 (medaka ARβ (mArβ) [1]; read-out: Agonistic activity EC50, geometric mean, positive control, n = 5)	In vitro positive: Esr (medaka Esr1 (mEsr1) [2]; mode of action in which EC50 or PC10 was obtained in RGA)	EC50 (medaka Esr1 (mEsr1) [2]; read-out: Agonistic activity EC50, HEK293 cells)	Antagonistic activity (medaka Esr1 (mEsr1) [3])	Agonistic activity PC10 (medaka ARβ (mArβ) [1]; HepG2 cells, concentration with 10% of maximum activity of 11KT)	Agonistic activity on mArβ (in words) (medaka ARβ (mArβ) [1]; only PC10 and not EC50 could be estimated)	Antagonistic activity (medaka ARβ (mArβ) [4])
C[C@]12CC(=O)[C@H]3[C@@H](CCC4=CC(=O)CC[C@@]43C)[C@@H]1CC[C@@H]2O [Chemical 11KT, 11‐ketotestosterone, reference compound]	0.0058 µM						
Oc1cccc2ccccc12 [Chemical 1NT, 1‐Naphtol]		Esr	78 µM	NE (MAC = 1.0 × 10^−5 M)^(B)	PC10 = 3.3 × 10^−5 M	positive agonistic activity	NE (MAC = 1.0 × 10^−4 M)^(C)
